Data published in patent US20100003217A1, “Compounds and Pharmaceutical Compositions for the Treatment of Viral Infections” (priority 2008, published 2010).
“And” between values parts separate entries of the source, which are not always exact repeats. Equal values may be shown once.

Test system: monkey primary hepatocytes
Experiment: Metabolic disposition of [^14C]-Compound 1 and [^14C]-2′-C-methyl guanosine in monkey primary hepatocytes (incubation medium, cellular extracts, nucleotide levels)
Format: in vitro ADME, Cynomolgus monkey
Procedure: Primary hepatocytes: Freshly isolated cells from animal and human liver were obtained in suspension on ice. Cells were pelleted by centrifugation at 70-75×g (rat) or 95-90×g (monkey and human) and resuspended at 0.8 million cells per mL of platting medium (William's E supplemented with 5% FBS, 0.5% penicillin-streptomycin, 1% L-glutamine, 4 μg/mL insulin and 1 μM dexamethasone). Multi-well collagen I-coated plates (rat tail collagen type I; 12- or 6-well) were then seeded by addition of 1 mL (12-well; 0.8 million cells/well) or 2 mL (6-well; 1.6 million cells/well) of cell suspension. The plates were gently shaken to evenly distribute the cells and placed in an incubator at 37° C. for approximately 4 to 6 hours to allow cells to attach. Once cells were attached, the platting medium was removed and replaced with hepatocyte culture medium (William's E supplemented with penicillin-streptomycin, 1% L-glutamine, 1% insulin-transferrin-selenium and 0.1 μM dexamethasone). Cells were left overnight in an incubator at 37° C. to acclimatize to culture and the medium.
Hepatocyte incubations with radiolabeled Compound 1 and 2′-C-methyl guanosine, both labeled in the C-8 position of the guanine moiety, were conducted at a final volume of 2.0 mL hepatocyte culture medium/well ([…]). Culture medium from overnight incubation of cells was removed and replaced with fresh medium, pre-warmed to 37° C., containing 1 or 10 μM [^14C]-Compound 1 ([…]) or [^14C]-2′-C-methyl guanosine (127 DPM/μmol) from a stock solution in DMSO (final DMSO concentration was 0.1%) or 50% ethanol (final ethanol concentration was 0.2%). After 1, 4, 8 and 24 hours, 0.5-1.0 mL of incubation medium was removed and stored at −20° C. until analysis (described below). The remaining medium was discarded and cell monolayers were carefully washed two times with ice-cold PBS. Following the last wash, all PBS was carefully removed and 1.0 mL of extraction solution (ice-cold 70% methanol) added. Cells were scrapped off and suspended in the extraction solution, transferred to 2 mL polypropylene microfuge tubes and intracellular contents extracted overnight at −20° C.
Preliminary identification of putative metabolites was conducted by comparing the retention time of observed metabolites in incubation medium and cellular extracts with retention times obtained with chemically synthesized standards using the chromatography conditions described below. Further identification of 2′-C-methyl guanosine nucleotides (mono-, di- and triphosphate) was carried out by incubating cellular extract samples with alkaline phosphatase (10 units for 60 min at 37° C.) and comparing the HPLC retention times of the resulting nucleosides with that of authentic 2′-C-methyl guanosine.
Cellular extracts were prepared by centrifugation at 16,000 RCF using an Eppendorf microcentrifuge (Eppendorf, Model 5415D) for 10 min to remove cellular debris. An aliquot of 5-10 μL of the supernatant was added to 5 mL of EcoLite™ (MP, Irvine, Calif.) liquid scintillation cocktail and radioactivity measured by liquid scintillation counting (LSC) using a Beckman Coulter LS6500 multipurpose liquid scintillation counter (Beckman Instruments, Fullerton, Calif.). The remaining sample was then dried using a Labconco refrigerated centrivap concentrator (Labconco, Kansas City, Mo.). Dry extracts were reconstituted in 120 μL of HPLC-grade water and centrifuged at 16,000 RCF using an Eppendorf microcentrifuge for 10 min. Prior to HPLC analysis (described below), radioactivity of the concentrated extracts was measured by LSC using 5 μL aliquots. Extraction recovery was then determined by comparing total radioactivity in extracts before and after drying. The remaining extract was then analyzed by HPLC with online radioactivity detection using a Flow Scintillation Analyzer Radiomatic™ 515TR. Radioactivity in the separated components was quantified by integrating the peaks using Flo-One™ Software (Perkin Elmer Life Sciences). […]

CC(C)(CO)C(=O)SCCOP(N)(=O)OC[C@H]1O[C@@H](n2cnc3c(=O)[nH]c(N)nc32)[C@](C)(O)[C@@H]1O (mixture of isomers) [Compound 3, {9-[(2R)2-C-methyl-β-D-ribo-furanosyl]-guanin}-5′-yl-O-(hydroxy-tert-butyl-S-acyl-2-thioethyl) phosphoramidate]
metabolites observed in medium (% of total radioactivity) (monkey hepatocytes (lot Cy234), 10 μM [^14C]-Compound 1, 4 h): BLD
metabolites observed in medium (% of total radioactivity) (monkey hepatocytes (lots Cy230, Cy234), 10 μM [^14C]-Compound 1, 0 h): BLD
metabolites observed in medium (% of total radioactivity) (monkey hepatocytes (lots Cy230, Cy234), 10 μM [^14C]-Compound 1, 1 h): BLD
metabolites observed in medium (% of total radioactivity) (monkey hepatocytes (lots Cy230, Cy234), 10 μM [^14C]-Compound 1, 24 h): 3.1% and 0.9%
